Measurements taken from patent US7635686B2, “Therapeutically useful triethyleneglycol cholesteryl oligonucleotides” (Bioniche Life Sciences, Inc., priority 2001, dated 2009).
{TEG-Chol} = cholesteryl attached through a triethyleneglycol (TEG) spacer, added as cholesteryl-TEG phosphoramidite

How the values were obtained:
MEG-01 cells [1] = experiment: Apoptosis by phosphatidylserine redistribution (FITC-annexin V flow cytometry) in MEG-01 cells; format: cell-based, human; conditions: 48 hours; for Percentage of positive cells for phosphatidylserine (cells in apoptosis) in MEG-01 cells: untreated cells 12%; for Induction of apoptosis in MEG-01 cells (in words): translocation of phosphatidylserine, up to 53.0 μM
Description: Redistribution of plasma membrane phosphatidylserine is a characteristic of cells undergoing apoptosis (Martin et al., J. Exp. Med., 182:1545, 1995). The redistribution of phosphatidylserine in the plasma membrane during apoptosis was measured by flow cytometry using FITC (fluorescein isothiocyanate)-conjugated annexin V (BD Pharmingen, San Diego, Calif.). MEG-01 cells, a human chronic myelogeneous leukemia cell line positive for the Philadelphia chromosome and having a BCR-ABL gene fusion, were incubated at 2.5×10^5 cells/ml for 48 hours with 5.3, 26.5 and 53.0 μM final concentrations of SEQ ID NO:1, SEQ ID NO:2, SEQ ID NO:5, SEQ ID NO:6 and cholesteryl-TEG phosphoramidite molecule. The percentage of cells in apoptosis after exposure to the SEQ ID NOs:1, 2, 5, 6, or cholesteryl-TEG phosphoramidite treatment is reported in Table 2. The percentage of apoptosis in untreated MEG-01 cells was 12%.

Mpanc-96 cells = experiment: MATRIGEL outgrowth after 1 hr pre-incubation, Mpanc-96; format: cell-based, human; conditions: Mpanc-96, 53 μM pre-incubation 1 hr, 3 days on MATRIGEL, FIG. 1
Description: (§1) Various in vitro and in vivo assays may be used to evaluate the influence of the extracellular microenvironment on behavior of normal cells and tumor cells. Such assays may employ MATRIGEL® (Becton Dickinson, Franklin Lakes, N.J.), which is a solubilized basement membrane preparation extracted from the Engelbreth-Holm-Swarm murine sarcoma.
(§2) MCF-7, MDA-MB-231 (MDA-231), Hs578T and Mpanc-96 cells were cultured separately in regular culture medium, trypsinized, and counted. 100×10^3 of MDA-231 cells, 100×10^3 of Hs578T cells, 150×10^3 of MCF-7 cells and 150×10^3 of Mpanc-96 cells were separately pre-incubated for 1 hr at 37° C. in a final concentration of 53 μM of SEQ ID NO:1, 53 μM of SEQ ID NO:5 or RCM, and plated on top of MATRIGEL®-coated plates (MATRIGEL® Basement membrane matrix coated cellware 24-well plate,) for 3 days. Plates were fixed with 10% formalin. Digital photographs of the cells in the 24-well plates were taken using a Nikon Coolpix 990 digital camera (Nikon Corporation, Tokyo, Japan) connected to a Nikon inverted microscope model TMS.

MDA-MB-231 cells = experiment: Release of nuclear mitotic apparatus protein (NuMA) by MDA-MB-231 cells (ELISA); format: cell-based, human; conditions: MDA-MB-231 monolayers, 53 μM, 72 hrs; percentage increase
Description: MDA-MB-231 cells were cultured as monolayers in respective control media, with 53 μM final concentration of SEQ ID NO:1 or 53 μM final concentration of SEQ ID NO:5 for 72 hrs. The release of nuclear mitotic apparatus protein (NuMA) was used as a measure of apoptosis. NuMA was determined using a commercial (ELISA kit (Oncogene, Cambridge, Mass.) following the manufacturer's protocol. Results are shown in Table 10 and are expressed as the percentage increase in NuMA release compared to respective controls based on optical density measurements.

Hs578T cells = experiment: MATRIGEL outgrowth after 1 hr pre-incubation, Hs578T; format: cell-based, human; conditions: 53 μM pre-incubation 1 hr, 3 days on MATRIGEL, FIG. 1 and FIG. 2
Description: as §1, §2
(§3) MDA-MB-231 (MDA-231) and Hs578T were cultured in regular culture medium, trypsinized and counted. 100×10^3 of MDA-MB-231 cells or 100×10^3 of Hs578T cells, were separately pre-incubated for 1 hr at 37° C. in a final concentration of 53 μM of SEQ ID NO:4, 53 μM of SEQ ID NO:8 or RCM and plated on MATRIGEL®-coated plates for 3 days. Plates were fixed with 10% formalin. Digital photographs of the cells in the 24-well plates were taken using a Nikon Coolpix 990 digital camera (Nikon Corporation, Tokyo, Japan) connected to a Nikon inverted microscope model TMS.

MCF-7 cells = experiment: MATRIGEL outgrowth after 1 hr pre-incubation, MCF-7; format: cell-based, human; conditions: MCF-7, 53 μM pre-incubation 1 hr, 3 days on MATRIGEL, FIG. 1
Description: as §1, §2

[2] = system: MDA-MB-231 (MDA-231) cells; experiment: MATRIGEL outgrowth after 1 hr pre-incubation, MDA-231; format: cell-based, human; conditions: MDA-231, 53 μM pre-incubation 1 hr, 3 days on MATRIGEL, FIG. 1 and FIG. 2
Description: as §1, §2, §3

HIG-82 cells [3] = experiment: Apoptosis by nuclear DNA fragmentation (TUNEL, flow cytometry) in HIG-82 cells; format: cell-based, rabbit; conditions: 53 μM; for Percentage of cells containing DNA fragmentation (cells in apoptosis) in HIG-82 cells: 48 hours, TUNEL; for Induction of apoptosis in HIG-82 cells (in words): fragmented nuclear DNA
Description: Adherent HIG-82 cells were incubated at 1.0×10^5 cells/ml for 48 hours with 53 μM final concentration of SEQ ID NO:1, SEQ ID NO:2, SEQ ID NO:5 or SEQ ID NO:6. Since phosphatidylserine/annexin V detection of apoptosis was not reliable after adherent cell harvesting techniques, such as trypsinization (van Engeland, Cytometry, 31:1, 1998), apoptosis in HIG-82 cells was evaluated using flow cytometry by the detection of fragmented DNA by terminal deoxynucleotidyl transferase enzyme-mediated bromodeoxyuridine triphosphate-biotin nick end-labeling (TUNEL) using a commercial assay (APO-BRDU™ kit; BD Pharmingen). The percentage of cells containing nuclear DNA fragmentation was determined. After 24 hours, untreated HIG-82 cells were essentially negative for nuclear DNA fragmentation.

MEG-01 cells [4] = experiment: Cell cycle stage in MEG-01 cells (propidium iodide flow cytometry); format: cell-based, human; conditions: 24 h
Description: To determine a cell cycle stage, various assays and procedures known to one skilled in the art may be employed. One such procedure uses a CYCLETEST™ PLUS DNA commercial kit (Becton Dickinson, Franklin Lakes, N.J.). Briefly, nuclei from cells are obtained by dissolving the cell membrane in a nonionic detergent, eliminating the cell cytoskeleton and nuclear proteins with trypsin, digesting the cellular RNA with RNase, and stabilizing the nuclear chromatin with spermine. Propidium iodide is added to the cell nuclei and their fluorescence was analyzed in a flow cytometer equipped with electronic doublet discrimination capability (FACSCalibur, Becton Dickinson, Franklin Lakes, N.J.). Accumulation of cells in G0/G1, early S (SE), mid S (SM), late S (SL) or G2/M phases of the cell cycle may be analyzed using MODFIT LT software (Verity Software House Inc., Topsham, Mass.), or other appropriate software.
Exponentially growing MEG-01 cells (2×10^5 cells/ml) were incubated for 24 h with 0 μM (control), 53 μM of SEQ ID NO:2 or 53 μM of SEQ ID NO:6. The cells were collected, centrifuged, and cell cycle stage was determined.

MEG-01 cells [5] = experiment: MEG-01 cells inoculated subcutaneously in athymic nude mice; format: in vivo; conditions: 1, 10, 100 mg/kg, after 4 weeks of treatment; versus saline and unconjugated sequences; dose-dependent
Description: MEG-01 cells are inoculated subcutaneously into athymic nude mice as previously described (Takeo et al., Leukemia 7:1286, 1993). The mice are divided into 13 groups of 10 mice. On day 0, group 1 mice receive saline, group 2 mice receive 1 mg/kg SEQ ID NO:1, group 3 mice receive 10 mg/kg SEQ ID NO:1, group 4 mice receive 100 mg/kg SEQ ID NO:1, group 5 mice receive 1 mg/kg SEQ ID NO:2, group 6 mice receive 10 mg/kg SEQ ID NO:2, group 7 mice receive 100 mg/kg SEQ ID NO:2, group 8 mice receive 1 mg/kg SEQ ID NO:5, group 9 mice receive 10 mg/kg SEQ ID NO:5, group 10 mice receive 100 mg/kg SEQ ID NO:5, group 11 mice receive 1 mg/kg SEQ ID NO:6, group 12 mice receive 10 mg/kg SEQ ID NO:6 and group 13 mice receive 100 mg/kg SEQ ID NO:6 After 4 weeks of treatment, the mice are sacrificed and tumor mass is determined.

[6] = system: Streptococcal cell wall-induced arthritis; experiment: Streptococcal cell wall-induced arthritis in rats; format: in vivo, LEW/N rats; conditions: 1, 10, 100 mg/kg with SCW, monitored daily for two weeks; versus SCW alone and unconjugated sequences; dose-dependent
Description: Streptococcal cell wall-induced arthritis in LEW/N rats resembles a localized neoplasm consisting of, in part, of a proliferative and invasive population of fibroblast-like synovial cells (Yocum et al., Am. J. Pathol. 132:38, 1988). The arthritis is induced in LEW/N rats by intra-articular injection of streptocococcal cell wall (SCW) from group A Streptococcus pyogenes. The rats are divided into 13 groups of 10 rats. On day 0, group 1 rats receive SCW, group 2 rats receive SCW+1 mg/kg SEQ ID NO:1, group 3 rats receive SCW+10 mg/kg SEQ ID NO:1, group 4 rats receive SCW+100 mg/kg SEQ ID NO:1, group 5 rats receive SCW+1 mg/kg SEQ ID NO:2, group 6 rats receive SCW+10 mg/kg SEQ ID NO:2, group 7 rats receive SCW+100 mg/kg SEQ ID NO:2, group 8 rats receive SCW+1 mg/kg SEQ ID NO:5, group 9 rats receive SCW+10 mg/kg SEQ ID NO:5, group 10 rats receive SCW+100 mg/kg SEQ ID NO:5, group 11 rats receive SCW+1 mg/kg SEQ ID NO:6, group 12 rats receive SCW+10 mg/kg SEQ ID NO:6, group 13 rats receive SCW+[…]. The joint inflammation is monitored daily for two weeks.

HIG-82 cells [7] = experiment: HIG-82 synovial cell proliferation (MTT reduction); format: cell-based, rabbit; conditions: 53 μM, 48 hours
Description: Adherent HIG-82 cells, a synovial cell line, were incubated at 10×10^5 cells/ml for 48 hours with 53 μM (final concentration) of SEQ ID NO:2, SEQ ID NO:3, SEQ ID NO:4, SEQ ID NO:6, SEQ ID NO:7, or SEQ ID NO:8. Cellular proliferation was measured using dimethylthiazol-diphenyl-tetrazolium (MTT) reduction (Mosman et al., J. Immunol. Methods 65:55, 1983). MTT was measured at a wavelength of 570 nm using a multiple spectrophotometer reader (ELX800, Bio-TEK, Instruments Inc., Winooski, Vt.). The percentage of inhibition, calculated as […]

Row | Substance | Percentage of positive cells for phosphatidylserine (cells in apoptosis) in MEG-01 cells (MEG-01 cells [1]; 5.3 μM) | Percentage of positive cells for phosphatidylserine (cells in apoptosis) in MEG-01 cells (MEG-01 cells [1]; 26.5 μM) | Percentage of positive cells for phosphatidylserine (cells in apoptosis) in MEG-01 cells (MEG-01 cells [1]; 53.0 μM) | Induction of apoptosis in MEG-01 cells (in words) (MEG-01 cells [1]) | Formation of 3-dimensional structures / cell morphology on MATRIGEL (Mpanc-96 cells) | NuMA release compared to controls (%) (MDA-MB-231 cells) | Formation of 3-dimensional structures / cell morphology on MATRIGEL (Hs578T cells) | Formation of 3-dimensional structures / cell morphology on MATRIGEL (MCF-7 cells) | Formation of 3-dimensional structures / cell morphology on MATRIGEL [2] | Percentage of cells containing DNA fragmentation (cells in apoptosis) in HIG-82 cells (HIG-82 cells [3]) | Induction of apoptosis in HIG-82 cells (in words) (HIG-82 cells [3]) | Induction of cell cycle arrest in MEG-01 cells (in words) (MEG-01 cells [4]; 53 μM) | % of cells in phase SM (MEG-01 cells [4]; MEG-01, 53 μM, untreated 10.8) | % of cells in phase SL + G2/M (MEG-01 cells [4]; MEG-01, 53 μM, untreated 17.8) | % of cells in phase G0/G1 + SE (MEG-01 cells [4]; MEG-01, 53 μM, untreated 71.4) | Tumor mass (MEG-01 cells [5]) | Joint inflammation [6] | Inhibition of proliferation of synovial HIG-82 cells (in words) (HIG-82 cells [7]) | Inhibition of HIG-82 cell proliferation, inhibition (%) (HIG-82 cells [7]; MTT)
1 | 5′ OH-GGGTGG-OH 3′ [SEQ ID NO:1] | 12% | 12% | 12% | inactive | did not change cell morphology | +5% | did not change cell morphology | did not change cell morphology | did not change cell morphology | 1% | inactive | – | – | – | – | – | – | – | –
2 | 5′ OH-GGGAGG(TEG-cholesteryl) 3′ (3' {TEG-Chol}, sugars by position and backbone not given here) [SEQ ID NO:6, 5′-OH, 3′-TEG cholesteryl synthetic oligonucleotide] | 13% | 22% | 39% | capacity to induce apoptosis | – | – | – | – | – | 18% | capacity to induce apoptosis | capacity to induce cell cycle arrest at the SL+G2/M phase | 6.5% | 41.9% | 51.6% | less tumor mass | less inflammation | capacity to inhibit the cellular proliferation | 75%
3 | 5′ OH-GGGTGG(TEG-cholesteryl) 3′ [SEQ ID NO:5] | 12% | 27% | 42% | capacity to induce apoptosis | prevented the formation of 3-dimensional structures | – | prevented the formation of 3-dimensional structures | prevented the formation of 3-dimensional structures | prevented the formation of 3-dimensional structures | 17% | capacity to induce apoptosis | – | – | – | – | less tumor mass | less inflammation | – | –
